# Experimental data from PubChem BioAssay AID328 (DTP/NCI, 2004).
# “And” between values parts separate entries of the source, which are not always exact repeats. Equal entries are not always repeated. Toxic doses and inconclusive results are not listed.
# Tested on: BDF1 mice, P388 leukemia ip, median survival T/C
# Experiment: NCI In Vivo Anticancer Drug Screen. Data for tumor model P388 Leukemia (intraperitoneal) in B6D2F1 (BDF1) mice
# Settings: endpoint: median survival time, higher = longer survival
# Procedure, shortened: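 Steps: implant the tumour, treat one group with compound and another with vehicle, record survival, then divide treated by control.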
# [1] = dose: 100.0 mg/kg/injection, schedule: Q01DX009 (ip), vehicle: Klucel (hydroxypropylcellulose) (HPC)
# [2] = dose: 200.0 mg/kg/injection, schedule: Q01DX009 (ip), vehicle: Klucel (hydroxypropylcellulose) (HPC)
# [3] = dose: 50.0 mg/kg/injection, schedule: Q01DX009 (ip), vehicle: saline with Tween-80
# [4] = dose: 100.0 mg/kg/injection, schedule: Q01DX009 (ip), vehicle: saline with Tween-80
# [5] = dose: 200.0 mg/kg/injection, schedule: Q01DX009 (ip), vehicle: saline with Tween-80
# [6] = dose: 100.0 mg/kg/injection, schedule: Q01DX009 (ip), vehicle: water
# [7] = dose: 100.0 mg/kg/injection, schedule: Q04DX003 (ip), vehicle: water
# [8] = dose: 100.0 mg/kg/injection, schedule: Q04DX003 (ip), vehicle: saline with Tween-80
# [9] = dose: 200.0 mg/kg/injection, schedule: Q04DX003 (ip), vehicle: saline with Tween-80
# [10] = dose: 400.0 mg/kg/injection, schedule: Q01DX009 (ip), vehicle: saline with Tween-80
# [11] = dose: 400.0 mg/kg/injection, schedule: Q04DX003 (ip), vehicle: saline with Tween-80
# [12] = dose: 25.0 mg/kg/injection, schedule: Q01DX009 (ip), vehicle: Klucel (hydroxypropylcellulose) (HPC)
# [13] = dose: 50.0 mg/kg/injection, schedule: Q01DX009 (ip), vehicle: Klucel (hydroxypropylcellulose) (HPC)
# [14] = dose: 50.0 mg/kg/injection, schedule: Q01DX009 (ip), vehicle: saline
# [15] = dose: 100.0 mg/kg/injection, schedule: Q01DX009 (ip), vehicle: saline
smiles,measurement,setting,value
CCCC(=O)NC1=C(N2CC2)C(=O)C(NC(=O)CCC)=C(N2CC2)C1=O,T/C,"dose: 0.44 mg/kg/injection, schedule: Q04DX003 (ip), vehicle: saline with Tween-80",104 % of control
same,T/C,"dose: 0.66 mg/kg/injection, schedule: Q04DX003 (ip), vehicle: saline with Tween-80",109 % of control
same,T/C,"dose: 1.0 mg/kg/injection, schedule: Q01DX009 (ip), vehicle: saline",213 % of control
same,T/C,"dose: 1.0 mg/kg/injection, schedule: Q04DX003 (ip), vehicle: saline with Tween-80",122 % of control
same,T/C,"dose: 1.5 mg/kg/injection, schedule: Q04DX003 (ip), vehicle: saline with Tween-80",100 % of control
same,T/C,"dose: 2.0 mg/kg/injection, schedule: Q01DX009 (ip), vehicle: saline",200 % of control
same,T/C,"dose: 2.5 mg/kg/injection, schedule: Q04DX003 (ip), vehicle: saline with Tween-80",150 % of control
same,T/C,"dose: 4.0 mg/kg/injection, schedule: Q01DX009 (ip), vehicle: saline",285 % of control
same,T/C,"dose: 5.0 mg/kg/injection, schedule: Q04DX003 (ip), vehicle: saline with Tween-80",204 % of control
same,T/C,"dose: 10.0 mg/kg/injection, schedule: Q04DX003 (ip), vehicle: saline with Tween-80",250 % of control
CCOC(=O)C(=O)Cc1sccc1[N+](=O)[O-],T/C,[1],105 % of control
same,T/C,"dose: 100.0 mg/kg/injection, schedule: Q04DX003 (ip), vehicle: Klucel (hydroxypropylcellulose) (HPC)",86 % of control
same,T/C,[2],100 % of control
same,T/C,"dose: 400.0 mg/kg/injection, schedule: Q01DX009 (ip), vehicle: Klucel (hydroxypropylcellulose) (HPC)",105 % of control
same,T/C,"dose: 400.0 mg/kg/injection, schedule: Q04DX003 (ip), vehicle: Klucel (hydroxypropylcellulose) (HPC)",91 % of control
O=C(CC(O)(C(F)(F)F)C(F)(F)F)c1ccc(Cl)cc1,T/C,[3],108 % of control
same,T/C,[4],95 % of control
same,T/C,[5],108 % of control
CC(O)(C(N)=O)c1cc(Cl)ccc1Cl (stereo not drawn),T/C,[6],110 % of control
same,T/C,[7],109 % of control
same,T/C,"dose: 200.0 mg/kg/injection, schedule: Q01DX009 (ip), vehicle: water",110 % of control
same,T/C,"dose: 200.0 mg/kg/injection, schedule: Q04DX003 (ip), vehicle: water",100 % of control
same,T/C,"dose: 400.0 mg/kg/injection, schedule: Q01DX009 (ip), vehicle: water",90 % of control
same,T/C,"dose: 400.0 mg/kg/injection, schedule: Q04DX003 (ip), vehicle: water",95 % of control
O=P(N1CCCC1)(N1CC1)N1CC1,T/C,"dose: 0.74 mg/kg/injection, schedule: Q01DX009 (ip), vehicle: saline",89 % of control
same,T/C,"dose: 1.11 mg/kg/injection, schedule: Q01DX009 (ip), vehicle: saline",98 % of control
same,T/C,"dose: 1.67 mg/kg/injection, schedule: Q01DX009 (ip), vehicle: saline",121 % of control
same,T/C,"dose: 2.2 mg/kg/injection, schedule: Q01DX009 (ip), vehicle: saline",205 % of control
same,T/C,"dose: 2.2 mg/kg/injection, schedule: Q04DX003 (ip), vehicle: saline",113 % of control
same,T/C,"dose: 2.5 mg/kg/injection, schedule: Q01DX009 (ip), vehicle: saline",180 % of control
same,T/C,"dose: 3.3 mg/kg/injection, schedule: Q01DX009 (ip), vehicle: saline",255 % of control
same,T/C,"dose: 5.0 mg/kg/injection, schedule: Q01DX009 (ip), vehicle: saline",268 % of control and 317 % of control
same,T/C,"dose: 5.56 mg/kg/injection, schedule: Q04DX003 (ip), vehicle: saline",150 % of control
same,T/C,"dose: 7.5 mg/kg/injection, schedule: Q01DX009 (ip), vehicle: saline",112 % of control
same,T/C,"dose: 7.5 mg/kg/injection, schedule: Q04DX003 (ip), vehicle: saline",182 % of control
same,T/C,"dose: 8.33 mg/kg/injection, schedule: Q04DX003 (ip), vehicle: saline",204 % of control
same,T/C,"dose: 12.5 mg/kg/injection, schedule: Q04DX003 (ip), vehicle: saline",240 % of control and 250 % of control
same,T/C,"dose: 18.7 mg/kg/injection, schedule: Q04DX003 (ip), vehicle: saline",272 % of control
C=CC[N+](C)(CC=C)CC[N+](C)(CC=C)CC=C,T/C,"dose: 50.0 mg/kg/injection, schedule: Q01DX009 (ip), vehicle: water",95 % of control
same,T/C,"dose: 50.0 mg/kg/injection, schedule: Q04DX003 (ip), vehicle: water",109 % of control
same,T/C,[6],104 % of control
same,T/C,[7],104 % of control
same,T/C,"dose: 150.0 mg/kg/injection, schedule: Q01DX009 (ip), vehicle: water",95 % of control
Cc1cc(Sc2ccc(Cl)cc2)nc(Sc2ccc(Cl)cc2)c1C#N,T/C,"dose: 50.0 mg/kg/injection, schedule: Q01DX005 (ip), vehicle: saline with Tween-80",94 % of control
same,T/C,"dose: 100.0 mg/kg/injection, schedule: Q01DX005 (ip), vehicle: saline with Tween-80",88 % of control
same,T/C,"dose: 200.0 mg/kg/injection, schedule: Q01DX005 (ip), vehicle: saline with Tween-80",91 % of control
O=C(CSc1cc(-c2ccc(Cl)cc2)s[s+]1)c1ccccc1,T/C,[3],101 % of control
same,T/C,[4],109 % of control
same,T/C,[8],114 % of control
same,T/C,[5],113 % of control
same,T/C,[9],114 % of control
same,T/C,[10],113 % of control
same,T/C,[11],93 % of control
Oc1ccc(Br)c2cccnc12,T/C,[12],91 % of control
same,T/C,[13],111 % of control
same,T/C,[1],98 % of control
same,T/C,[2],102 % of control
same,T/C,"dose: 200.0 mg/kg/injection, schedule: Q01DX010 (ip), vehicle: saline",100 % of control
C1CC[N-]CC1.C1CC[N-]CC1.C1CC[N-]CC1.C1CC[N-]CC1.CC(=N\[O-])/C(C)=N/O.CC(=N\[O-])/C(C)=N/O.[Cl-].[Cl-].[Cl][Rh][Cl].[Rh+3],T/C,[14],98 % of control
same,T/C,[15],86 % of control
same,T/C,"dose: 200.0 mg/kg/injection, schedule: Q01DX009 (ip), vehicle: saline",86 % of control
same,T/C,"dose: 400.0 mg/kg/injection, schedule: Q01DX009 (ip), vehicle: saline",95 % of control
CCOC(=O)C1C2OC(=O)C(C(=O)C2N=Nc2ccc(-c3ccc(N=NC4C(=O)C5C(=O)OC4C(C(=O)OCC)C5C4CC=CCC4)cc3)cc2)C1C1CC=CCC1 (stereo not drawn),T/C,[4],109 % of control
same,T/C,[8],110 % of control
same,T/C,[5],100 % of control
same,T/C,[9],105 % of control
same,T/C,[10],109 % of control
same,T/C,[11],115 % of control
CC(C)(C)P(O)(=S)c1ccccc1 (stereo not drawn) (tested in a mixture with another compound),T/C,"dose: 50.0 mg/kg/injection, schedule: Q01DX005 (ip), vehicle: saline",94 % of control
same,T/C,"dose: 100.0 mg/kg/injection, schedule: Q01DX005 (ip), vehicle: saline",93 % of control
same,T/C,"dose: 200.0 mg/kg/injection, schedule: Q01DX005 (ip), vehicle: saline",100 % of control
CSc1cccc(NC(=O)Oc2cc(C)c(Cl)c(C)c2Cl)c1,T/C,"dose: 6.25 mg/kg/injection, schedule: Q01DX009 (ip), vehicle: DMSO",117 % of control
same,T/C,"dose: 12.5 mg/kg/injection, schedule: Q01DX009 (ip), vehicle: DMSO",102 % of control
CCOC(=O)C[n+]1ccccc1,T/C,"dose: 25.0 mg/kg/injection, schedule: Q01DX009 (ip), vehicle: saline",100 % of control
same,T/C,[14],118 % of control
same,T/C,"dose: 50.0 mg/kg/injection, schedule: Q04DX003 (ip), vehicle: saline with Tween-80",90 % of control
same,T/C,"dose: 75.0 mg/kg/injection, schedule: Q04DX003 (ip), vehicle: saline",104 % of control
same,T/C,[15],90 % of control
same,T/C,[8],90 % of control
same,T/C,"dose: 150.0 mg/kg/injection, schedule: Q04DX003 (ip), vehicle: saline",109 % of control
CN(C)C=O.CN(C)C=O.[Cl][Sn]([Cl])([Cl])[Cl],T/C,[12],100 % of control
same,T/C,[13],105 % of control
same,T/C,"dose: 75.0 mg/kg/injection, schedule: Q04DX003 (ip), vehicle: Klucel (hydroxypropylcellulose) (HPC)",109 % of control
same,T/C,[1],100 % of control
same,T/C,"dose: 150.0 mg/kg/injection, schedule: Q04DX003 (ip), vehicle: Klucel (hydroxypropylcellulose) (HPC)",86 % of control
O=c1[nH]c(=O)[nH]c(=O)[nH]1,T/C,"dose: 75.0 mg/kg/injection, schedule: Q01DX009 (ip), vehicle: Klucel (hydroxypropylcellulose) (HPC)",120 % of control
same,T/C,"dose: 150.0 mg/kg/injection, schedule: Q01DX009 (ip), vehicle: Klucel (hydroxypropylcellulose) (HPC)",120 % of control
same,T/C,"dose: 300.0 mg/kg/injection, schedule: Q01DX009 (ip), vehicle: Klucel (hydroxypropylcellulose) (HPC)",110 % of control
